Results from patent US9907859B2 (priority 2010, dated 2018).
Several values for one entry are separate records, joined by “and”; a condition that tells them apart may be missing. Equal values may be shown once. Read-outs that look alike come from different tables or passages of the source.

Assays:
[1] = New Zealand White, rabbit, in vivo
ectromelia virus (ECTV) = details: read-out: 50% effective concentration [EC50], inhibition of virus replication; cited from earlier work
monkeypox = details: in vitro, read-out: 50% effective concentration [EC50], inhibition of virus replication; cited from earlier work
[2] = cynomolgus monkey, in vivo
[3] = mouse, in vivo; for AUC0-24: po, 300 mg/kg
[4] = both, New Zealand White, rabbit, in vivo, po, 100 mg/kg

SMILES: O=C(NN1C(=O)C2C3C=CC(C4CC34)C2C1=O)c1ccc(C(F)(F)F)cc1 (stereo not shown) [ST-246, 4-trifluoromethyl-N-(3,3a,4,4a,5,5a,6,6a-octahydro-1,3-dioxo-4,6-ethenocycloprop[f]isoindol-2(1H)-yl)-benzamide]
- Solubility of ST-246 (4 ° C.): 5.47 and 6.05
- Solubility of ST-246 (25 ° C.): 9.21 and 10.59
- Solubility of ST-246 (40 ° C.): 12.99 and 12.23
- Solubility of ST-246 (60 ° C.): 17.41 and 16.21
- AUC0-24 hr ([1]; both, iv, 3 mg/kg): 3.39 ± 1.07 µg·h/mL
- CL ([1]; both, iv, 3 mg/kg): 0.966 ± 0.363 L/h/kg
- mean maximum plasma concentration ([1]; both, iv, 30 mg/kg): 38.5 µg/mL
- peak plasma concentration ([1]; female, 3 mg/kg): 4345 ng/mL
- peak plasma concentration ([1]; male, 3 mg/kg): 7225 ng/mL
- EC50 (ectromelia virus (ECTV)): ≤ 0.07 µM
- EC50 (monkeypox): ≤ 0.07 µM
- onset of tremors after end of infusion ([2]; both, 30 mg/kg): ≤ 13 min
- resolution of tremors after end of infusion ([2]; both, 30 mg/kg): approximately 2 hours
- clinical signs [2]: no clinical signs were observed
- clinical signs ([2]; 20 mg/kg): Tremors were not observed
- increase of apparent clearance after oral dosing ([3]; female, BALB/c): approximately 10 fold
- AUC0-24 ([3]; female): 688.685 µg·h/mL
- AUC0-24 ([3]; male): 669.961 µg·h/mL
- AUC0-24 hr [4]: 19.8 ± 16.6 µg·h/mL
